Columns and labels:
Type in all cases: cell-based
A431 = test: Assay II of bioactive molecules on cell viability in vitro (CCK8); conditions: Homo sapiens, A-431; CCK8, 3-4 days
Protocol: (§1) Tumor cells NUCG-4, PC-9, HT29, NCI-H358, KYSE520, A431 and A549 were first cultured; the bioactive molecules or fragments of the present disclosure were co-cultured with tumor cells, and then CCK8 reagent (Dojindo Laboratories (Shanghai), Cat: CK04, Lot: JJ744) was added, and the activity of dehydrogenase in mitochondria was detected by reading (detection wavelength 450 nm) on a microplate reader (manufacturer: Molecular Devices, model: SpectraMax M2), to evaluate the inhibitory effect of bioactive molecules on cell proliferation.
In vitro cell viability assay method: the tumor cells were digested by conventional methods using trypsin, and cells in tube were collected and counted, and then resuspended in the corresponding assay media (containing 2% FBS), which was added to a 96-well plate at 5000-10000 cells/well. Bioactive molecules were diluted with DMSO, and then 100 μL was added to a 96-well plate, the initial concentration was 10 μM, followed by 3-fold serial dilution (12 concentration gradients). The plate was incubated for 3-4 days at 37° C. under 5% CO2. Then, 20 μL of CCK8 reagent was added to each well, and the reaction was carried out for 2-6 h. The plate was read on a microplate reader (detection wavelength was 450 nm).

HCC1806 cells = test: Assay I of bioactive molecules on cell viability in vitro (CCK8); conditions: Homo sapiens, HCC1806, 72 h; 7500 cells/well, 3 days; read-out: EC50(nM), killing of HCC1806 cells
Protocol: as §1, with “cells” for “cells NUCG-4, PC-9, HT29, NCI-H358, KYSE520, A431 and A549”, “molecules” for “molecules or fragments”
(§2) In vitro cell viability assay method: bioactive molecules (12 concentration gradients) were diluted with corresponding assay medium (containing 2% FBS). The tumor cells were digested by conventional methods using trypsin, and cells in tube were collected and counted, then resuspended in the corresponding assay media (containing 2% FBS). The diluted bioactive molecules were added to a 96-well plate, followed by the cells. Then, 20 μL of CCK8 reagent was added to each well, and the reaction was carried out for 4 h, then the plate was read on a microplate reader (detection wavelength was 450 nm). The experimental results are shown in Tables 6.1, 6.2, 6.3, 6.4, and 6.5.

PANC-1 cells = test: as above; conditions: Homo sapiens, read-out: EC50(nM), killing of PANC-1 cells
Protocol: as §1, with “cells” for “cells NUCG-4, PC-9, HT29, NCI-H358, KYSE520, A431 and A549”, “molecules” for “molecules or fragments”
as §2

NCl-H358 cells = test: as above; conditions: Homo sapiens, read-out: EC50(nM), killing of NCl-H358 cells
Protocol: as §1, with “cells” for “cells NUCG-4, PC-9, HT29, NCI-H358, KYSE520, A431 and A549”, “molecules” for “molecules or fragments”
as §2

HT29 cells = test: as above; conditions: Homo sapiens, HT-29, CCK8; read-out: EC50(nM), killing of HT29 cells
Protocol: as §1, with “cells” for “cells NUCG-4, PC-9, HT29, NCI-H358, KYSE520, A431 and A549”, “molecules” for “molecules or fragments”
as §2

NCl-H322M cells = test: as above; conditions: Homo sapiens, read-out: EC50(nM), killing of NCl-H322M cells
Protocol: as §1, with “cells” for “cells NUCG-4, PC-9, HT29, NCI-H358, KYSE520, A431 and A549”, “molecules” for “molecules or fragments”
as §2

For CC[C@@]1(O)C(=O)OCc2c1cc1n(c2=O)Cc2c-1nc1cc3c(cc1c2CCCO)OCO3 [Example A1.9, (S)-7-ethyl-7-hydroxy-14-(3-hydroxypropyl)-10,13-dihydro-11H-[1,3]dioxolo[4,5-g]pyrano[3′,4′:6,7]indolizino[1,2-b]quinolin-8,11(7H)-dione], the EC50 (A431) was 5.71 nM, the EC50 (HCC1806 cells) was 1.9 nM and the EC50 (PANC-1 cells) was 94.5 nM. It also gave an EC50 (NCl-H358 cells) of 60.8 nM, an EC50 (HT29 cells) of 57.5 nM and an EC50 (NCl-H322M cells) of 30.4 nM.

From patent US20240108745A1, “BIOACTIVE SUBSTANCE CONJUGATE, PREPARATION METHOD THEREFOR AND USE THEREOF” (MEDILINK THERAPEUTICS (SUZHOU) CO., LTD., priority 2021, published 2024)
